From patent publication US20090098044A1, “SOLID PARTICLES FROM CONTROLLED DESTABILISATION OF MICROEMULSIONS” (Australian Nuclear Science and Technology Organisation, priority 2004, published 2009)

Experiments:
Type in all cases: physicochemical
[1] = Decomposition of pure doxorubicin in PBS (pH 6.9/25° C.) at 37° C.; conditions: normal phosphate buffer
Solubility of the drug = test: Solubility of the drug
[2] = Decomposition of doxorubicin at pH 7.4 versus pH<4
Source text: The decomposition rate of doxorubicin at physiological pH (pH 7.4) versus its decomposition rate at pH<4 makes analysis of the system difficult.

## COc1cccc2c1C(=O)c1c(O)c3c(c(O)c1C2=O)C[C@@](O)(C(=O)CO)C[C@@H]3O[C@H]1C[C@H](N)[C@H](O)[C@H](C)O1 [doxorubicin]
[1]; in 2 weeks
  doxorubicin disappears: about 74%
[1]; phosphate buffer (PBS), pH 6.9, exponential decomposition during first ten days, read-out: half decay (T1/2) of doxorubicin (converted)
  half-life: ~108 h
Solubility of the drug; acetone
  solubility of doxorubicin in acetone: high solubility
Solubility of the drug; aqueous solutions, orange precipitate seen after day 9
  solubility of doxorubicin in aqueous solutions: limited solubility
[2]; known concentration of doxorubicin, FIG. 44
  decomposition of doxorubicin at pH 7.4 compared with pH<4: increased decomposition at physiological pH
[2]; pH<4 (pH ~3.4)
  stability of doxorubicin as a function of pH: most stable at this pH
